One assay has as its target T1, DDR1 (Homo sapiens, UniProt Q08345).
T1 construct: purchased Carna Biosciences
The experiment in a line: LanthaScreen Europium Kinase Binding assay, DDR1. The following applies: 5 nM DDR1, 20 nM Kinase Tracer 178, 1 h at rt; Ki from IC50 by Cheng-Prusoff; read-out: Ki DDR1. As for the experimental part:
(§1) DDR1 and DDR2 binding assays were performed using Life Technologies LanthaScreen™ Europium Kinase Binding assay. […] IC50 values were determined in GraphPad Prism 7.0 software, using 4 parameter model: log (inhibitor) vs. response. IC50 values were converted in Ki using the Cheng-Prusoff equation (Ki-IC50/(1+ [Tracer]/Kd).
On the technique in general: In TR-FRET formats the signal depends on donor and acceptor labels being close together.

The next assay has as its target T2, DDR2 (Homo sapiens, UniProt Q16832).
T2 construct: purchased Life Technologies
T2 sequence (Q16832 22-855): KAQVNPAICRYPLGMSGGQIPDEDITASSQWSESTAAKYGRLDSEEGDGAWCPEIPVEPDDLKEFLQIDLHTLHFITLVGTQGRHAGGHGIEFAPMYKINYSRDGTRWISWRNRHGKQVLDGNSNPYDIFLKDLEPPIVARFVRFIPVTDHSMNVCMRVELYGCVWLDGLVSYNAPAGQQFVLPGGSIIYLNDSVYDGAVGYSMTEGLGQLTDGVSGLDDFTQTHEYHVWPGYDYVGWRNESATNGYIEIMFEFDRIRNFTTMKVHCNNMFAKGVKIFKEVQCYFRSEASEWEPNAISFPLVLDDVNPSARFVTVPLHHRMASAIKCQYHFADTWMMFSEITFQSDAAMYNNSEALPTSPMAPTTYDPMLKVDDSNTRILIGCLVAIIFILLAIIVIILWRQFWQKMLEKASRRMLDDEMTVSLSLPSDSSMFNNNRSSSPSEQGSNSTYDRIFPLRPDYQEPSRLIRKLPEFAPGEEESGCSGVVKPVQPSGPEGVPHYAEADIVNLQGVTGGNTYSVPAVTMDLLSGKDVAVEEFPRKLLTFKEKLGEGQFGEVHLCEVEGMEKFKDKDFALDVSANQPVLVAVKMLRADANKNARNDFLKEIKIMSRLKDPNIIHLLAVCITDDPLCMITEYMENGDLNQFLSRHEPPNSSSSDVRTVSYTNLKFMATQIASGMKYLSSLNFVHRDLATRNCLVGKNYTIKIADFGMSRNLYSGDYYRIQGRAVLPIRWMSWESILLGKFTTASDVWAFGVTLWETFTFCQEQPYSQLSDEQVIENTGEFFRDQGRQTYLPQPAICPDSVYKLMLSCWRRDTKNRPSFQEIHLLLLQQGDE
In words: LanthaScreen Europium Kinase Binding assay, DDR2. The following applies: 5 nM DDR2, 10 nM Kinase Tracer 178, 1 h at rt; Ki from IC50 by Cheng-Prusoff; read-out: Ki DDR2. As for the experimental part: as §1

Bounds are passed on as bounds.

T1 sequence (Q08345 19-913): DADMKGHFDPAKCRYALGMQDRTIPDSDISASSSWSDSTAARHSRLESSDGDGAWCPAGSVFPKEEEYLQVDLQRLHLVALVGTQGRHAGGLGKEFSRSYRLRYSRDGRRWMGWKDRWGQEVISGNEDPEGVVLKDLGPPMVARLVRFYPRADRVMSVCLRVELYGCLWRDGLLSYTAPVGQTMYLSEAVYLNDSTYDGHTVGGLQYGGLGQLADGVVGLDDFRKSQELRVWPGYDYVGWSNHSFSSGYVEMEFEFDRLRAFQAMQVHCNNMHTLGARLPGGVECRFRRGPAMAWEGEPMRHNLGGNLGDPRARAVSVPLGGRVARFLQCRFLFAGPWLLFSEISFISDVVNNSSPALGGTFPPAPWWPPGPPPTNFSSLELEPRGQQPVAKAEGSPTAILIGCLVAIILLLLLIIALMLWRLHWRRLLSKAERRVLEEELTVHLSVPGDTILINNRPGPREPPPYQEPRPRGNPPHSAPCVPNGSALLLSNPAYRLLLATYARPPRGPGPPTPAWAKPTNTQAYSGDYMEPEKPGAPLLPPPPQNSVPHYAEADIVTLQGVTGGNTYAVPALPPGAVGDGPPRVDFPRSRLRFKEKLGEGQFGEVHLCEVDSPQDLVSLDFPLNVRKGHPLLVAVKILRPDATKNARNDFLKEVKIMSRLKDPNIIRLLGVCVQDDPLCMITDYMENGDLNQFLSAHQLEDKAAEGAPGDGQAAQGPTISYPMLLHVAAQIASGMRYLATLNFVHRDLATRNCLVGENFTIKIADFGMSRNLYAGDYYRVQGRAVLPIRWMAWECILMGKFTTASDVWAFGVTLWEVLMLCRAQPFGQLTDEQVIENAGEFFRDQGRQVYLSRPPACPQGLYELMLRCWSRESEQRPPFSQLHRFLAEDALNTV

As a reminder, the Ki is a dissociation constant, usually derived from enzyme kinetics or from competition with a known ligand. `Cn1ccn2ncc(C(=O)N3CC4(CC(CC(=O)Nc5cncc(C(F)(F)F)c5)C4)C3)c12` [Example 274, 2-(2-(1-methyl-1H-imidazo[1,2-b]pyrazole-7-carbonyl)-2-azaspiro[3.3]heptan-6-yl)-N-(5-(trifluoromethyl)pyridin-3-yl)acetamide]: the Ki was < 5 nM on DDR1 and 5 to 25 nM at DDR2.

Turning to `Cn1ccn2ncc(C(=O)N3CC4(CC(OC(=O)Nc5cc(C(F)(F)F)ncn5)C4)C3)c12` [Example 297, 2-(1-methyl-1H-imidazo[1,2-b]pyrazole-7-carbonyl)-2-azaspiro[3.3]heptan-6-yl(6-(trifluoromethyl)pyrimidin-4-yl)carbamate], the Ki on DDR1 is < 5 nM; at DDR2 it was 5 to 25 nM.

Take `O=C(Nc1cccc(C(F)(F)F)c1)NC1CC2(C1)CN(Cc1cnc3cnccn13)C2` [Example 11, 1-(2-(imidazo[1,2-a]pyrazin-3-ylmethyl)-2-azaspiro[3.3]heptan-6-yl)-3-(3-(trifluoromethyl)phenyl)urea]: the Ki on DDR1 and on DDR2 was 5 to 25 nM in each case.

Take `O=C(Nc1cc(OC(F)(F)F)ccn1)OC1CC2(C1)CN(C(=O)c1cnn3ccsc13)C2` [Example 272, 2-(pyrazolo[5,1-b]thiazole-7-carbonyl)-2-azaspiro[3.3]heptan-6-yl(4-(trifluoromethoxy)pyridin-2-yl)carbamate]: the Ki on DDR1 and on DDR2 was < 5 nM in each case.

On to `O=C(Nc1cccc(SC(F)(F)F)c1)NC1CC2(C1)CN(C(=O)c1ccnc3[nH]ncc13)C2` [Example 162, 1-(2-(1H-pyrazolo[3,4-b]pyridine-4-carbonyl)-2-azaspiro[3.3]heptan-6-yl)-3-(3-((trifluoromethyl)thio)phenyl)urea], for which the Ki at DDR1 and on DDR2 was < 5 nM each time.

`CN(C(=O)Nc1cc(C(F)(F)F)ccc1Cl)C1CC2(C1)CN(C(=O)c1ncnc3[nH]ccc13)C2` [Example 285, 1-(2-(7H-pyrrolo[2,3-d]pyrimidine-4-carbonyl)-2-azaspiro[3.3]heptan-6-yl)-3-(2-chloro-5-(trifluoromethyl)phenyl)-1-methylurea]: the Ki at DDR1 and on DDR2 was < 5 nM in each case.

On to `COc1cccc(NC(=O)NC2CC3(C2)CN(C(=O)c2cnn4ccsc24)C3)c1` [Example 33, 1-(3-methoxyphenyl)-3-(2-(pyrazolo[5,1-b]thiazole-7-carbonyl)-2-azaspiro[3.3]heptan-6-yl)urea], for which the results for the Ki on DDR1 and at DDR2 were 5 to 25 nM and > 100 nM, respectively.

Regarding `CN(C(=O)Nc1cc(CO)cc(C(F)(F)F)c1)C1CC2(C1)CN(C(=O)c1cnn3ccsc13)C2` [Example 94, 3-(3-(hydroxymethyl)-5-(trifluoromethyl)phenyl)-1-methyl-1-(2-(pyrazolo[5,1-b]thiazole-7-carbonyl)-2-azaspiro[3.3]heptan-6-yl)urea], the Ki was < 5 nM on DDR1 and 5 to 25 nM on DDR2.

For the molecule `Cn1ccn2ncc(C(=O)N3CC4(CC(NC(=O)Nc5cc(F)cc(OC(F)(F)F)c5)C4)C3)c12` [Example 124, 1-(3-fluoro-5-(trifluoromethoxy)phenyl)-3-(2-(1-methyl-1H-imidazo[1,2-b]pyrazole-7-carbonyl)-2-azaspiro[3.3]heptan-6-yl)urea], the Ki at DDR1 and at DDR2 was < 5 nM each time.

In the case of `CN(C(=O)Nc1cc(C(F)(F)F)ccn1)C1CC2(C1)CN(C(=O)c1ncnc3ccsc13)C2` [Example 263, 1-methyl-1-(2-(thieno[3,2-d]pyrimidine-4-carbonyl)-2-azaspiro[3.3]heptan-6-yl)-3-(4-(trifluoromethyl)pyridin-2-yl)urea], the Ki is < 5 nM on DDR1 and 5 to 25 nM on DDR2.

With `O=C(Nc1cccc(OC(F)F)c1)NC1CC2(C1)CN(C(=O)c1ncnc3ccsc13)C2` [Example 89, 1-(3-(difluoromethoxy)phenyl)-3-(2-(thieno[3,2-d]pyrimidine-4-carbonyl)-2-azaspiro[3.3]heptan-6-yl)urea], the Ki on DDR1 and at DDR2 was < 5 nM throughout.

With `CCN(C(=O)Nc1cc(F)cc(C(F)(F)F)c1)C1CC2(C1)CN(C(=O)c1cnn3ccn(C)c13)C2` [Example 86, 1-ethyl-3-(3-fluoro-5-(trifluoromethyl)phenyl)-1-(2-(1-methyl-1H-imidazo[1,2-b]pyrazole-7-carbonyl)-2-azaspiro[3.3]heptan-6-yl)urea], the Ki at DDR1 was < 5 nM; at DDR2, 5 to 25 nM.

Turning to `CN(C(=O)Nc1cncc(OC(F)(F)F)c1)C1CC2(C1)CN(C(=O)c1cnn3ccsc13)C2` [Example 179, 1-methyl-1-(2-(pyrazolo[5,1-b]thiazole-7-carbonyl)-2-azaspiro[3.3]heptan-6-yl)-3-(5-(trifluoromethoxy)pyridin-3-yl)urea], the Ki was < 5 nM at DDR1 and 5 to 25 nM on DDR2.

Regarding `O=C(Nc1cccc(C(F)(F)F)c1)NC1CC2(C1)CN(C(=O)c1cnn3ccc(N4CCC(O)C4)cc13)C2` (stereo not shown) [Example 185, 1-(2-(5-(3-hydroxypyrrolidin-1-yl)pyrazolo[1,5-a]pyridine-3-carbonyl)-2-azaspiro[3.3]heptan-6-yl)-3-(3-(trifluoromethyl)phenyl)urea], the inhibitory constant (Ki) on DDR1 and on DDR2 was < 5 nM in each case.

As for `Cc1ccc(OC(F)(F)F)cc1NC(=O)NC1CC2(C1)CN(C(=O)c1cnn3ccn(C)c13)C2` [Example 61, 1-(2-(1-methyl-1H-imidazo[1,2-b]pyrazole-7-carbonyl)-2-azaspiro[3.3]heptan-6-yl)-3-(2-methyl-5-(trifluoromethoxy)phenyl)urea], the Ki at DDR1 was < 5 nM; on DDR2 it was 5 to 25 nM.

With `Nc1cccn2ncc(C(=O)N3CC4(CC(NC(=O)Nc5cccc(C(F)(F)F)c5)C4)C3)c12` [Example 32, 1-(2-(4-aminopyrazolo[1,5-a]pyridine-3-carbonyl)-2-azaspiro [3.3]heptan-6-yl)-3-(3-(trifluoromethyl)phenyl)urea], the Ki was < 5 nM at DDR1 and 5 to 25 nM on DDR2.

As for `CN(C(=O)Nc1cncc(OC(F)(F)F)c1)C1CC2(C1)CN(C(=O)c1cnn3ccncc13)C2` [Example 176, 1-methyl-1-(2-(pyrazolo[1,5-a]pyrazine-3-carbonyl)-2-azaspiro[3.3]heptan-6-yl)-3-(5-(trifluoromethoxy)pyridin-3-yl)urea], the results for the Ki on DDR1 and on DDR2 were 5 to 25 nM and 25 to 100 nM, respectively.

Regarding `CN(C(=O)Nc1cccc(C(F)(F)F)c1)C1CC2(C1)CN(C(=O)c1cnn3ccn(C)c13)C2` [Example 134, 1-methyl-1-(2-(1-methyl-1H-imidazo[1,2-b]pyrazole-7-carbonyl)-2-azaspiro[3.3]heptan-6-yl)-3-(3-(trifluoromethyl)phenyl)urea], the results for the Ki on DDR1 and at DDR2 were < 5 nM and 5 to 25 nM, respectively.

Consider `CCc1ncc(C(F)(F)F)cc1NC(=O)N(C)C1CC2(C1)CN(C(=O)c1cnn3ccn(C)c13)C2` [Example 310, 3-(2-ethyl-5-(trifluoromethyl)pyridin-3-yl)-1-methyl-1-(2-(1-methyl-1H-imidazo[1,2-b]pyrazole-7-carbonyl)-2-azaspiro[3.3]heptan-6-yl)urea], for which the Ki was 5 to 25 nM at DDR1 and 25 to 100 nM at DDR2.

As to `CN(C(=O)Nc1cc(C(F)(F)F)ccn1)C1CC2(C1)CN(C(=O)c1cnn3ccccc13)C2` [Example 238, 1-methyl-1-(2-(pyrazolo[1,5-a]pyridine-3-carbonyl)-2-azaspiro[3.3]heptan-6-yl)-3-(4-(trifluoromethyl)pyridin-2-yl)urea], the Ki on DDR1 was < 5 nM; at DDR2 it was 5 to 25 nM.

As for `CN(C(=O)Nc1cncc(C(F)(F)F)c1)C1CC2(C1)CN(C(=O)c1cnn3ccsc13)C2` [Example 47, 1-methyl-1-(2-(pyrazolo[5,1-b]thiazole-7-carbonyl)-2-azaspiro[3.3]heptan-6-yl)-3-(5-(trifluoromethyl)pyridin-3-yl)urea], the Ki on DDR1 is < 5 nM; at DDR2 it was 5 to 25 nM.

As for `Cn1ccn2ncc(C(=O)N3CC4(CC(NC(=O)Nc5cncc(OC(F)(F)F)c5)C4)C3)c12` [Example 51, 1-(2-(1-methyl-1H-imidazo[1,2-b]pyrazole-7-carbonyl)-2-azaspiro[3.3]heptan-6-yl)-3-(5-(trifluoromethoxy)pyridin-3-yl)urea], the Ki at DDR1 is < 5 nM; at DDR2, 5 to 25 nM.

In the case of `CN(C(=O)Nc1cc(C2CC2)ccn1)C1CC2(C1)CN(C(=O)c1cnn3ccn(C)c13)C2` [Example 156, 3-(4-cyclopropylpyridin-2-yl)-1-methyl-1-(2-(1-methyl-1H-imidazo[1,2-b]pyrazole-7-carbonyl)-2-azaspiro[3.3]heptan-6-yl)urea], the Ki at DDR1 is < 5 nM; on DDR2 it was 5 to 25 nM.

For the origin of these results see patent US20260285855A1, “HETEROARYL DERIVATIVES AS DDRS INHIBITORS” (CHIESI FARMACEUTICI S.P.A., priority 2023, published 2026).
